Results as given in ChEMBL document CHEMBL1201862, “PubChem BioAssay data set” (2004).
Calls of active or inactive are those of the source.

Assays:
Cysteine protease ATG4B = biological target: T1, Cysteine protease ATG4B (Homo sapiens, UniProt Q9Y4P1); assay type: functional;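 further: Fluorescence-based dose-response confirmation assay measuring inhibition of ATG4B activity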
T1 sequence (Q9Y4P1 whole entry): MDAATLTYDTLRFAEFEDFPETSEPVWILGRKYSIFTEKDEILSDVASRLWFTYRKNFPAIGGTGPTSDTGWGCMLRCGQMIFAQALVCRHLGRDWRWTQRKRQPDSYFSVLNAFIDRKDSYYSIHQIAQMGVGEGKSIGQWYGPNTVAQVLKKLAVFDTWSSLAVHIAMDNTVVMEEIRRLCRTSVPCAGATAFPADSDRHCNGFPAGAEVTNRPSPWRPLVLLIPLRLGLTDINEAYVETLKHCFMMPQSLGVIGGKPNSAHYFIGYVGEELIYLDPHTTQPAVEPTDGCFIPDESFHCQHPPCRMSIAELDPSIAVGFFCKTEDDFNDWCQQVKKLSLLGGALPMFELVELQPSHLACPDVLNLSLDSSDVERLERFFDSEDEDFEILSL

Phospholipase A2 = Phospholipase A2 (Homo sapiens, UniProt P04054); assay type: functional;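 further: confirmatory dose-response counterscreen on phospholipase A2, testing hits that came from an ultra-high-throughput screen for ATG4B inhibitors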
[1] = tested on: Streptococcus sp. 'group A'; assay: growth inhibition of control SK(-) GAS strain, dose response, counter-screen for streptokinase expression inhibitor project, luminescence, kanamycin, BacTiterGlo, confirmation (AID 1900); assay type: functional, organism-based
Streptokinase A = biological target: T2, Streptokinase A (Streptococcus pyogenes serotype M1, UniProt P10520); assay: S. pyogenes streptokinase expression inhibitors, potency, dose response, plasminogen activation absorbance, OD405 (AID 1914); assay type: functional, Streptococcus pyogenes M1 GAS;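 further: secreted streptokinase activity via plasminogen activation per viability signal from cell pellet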
T2 sequence (P10520 whole entry): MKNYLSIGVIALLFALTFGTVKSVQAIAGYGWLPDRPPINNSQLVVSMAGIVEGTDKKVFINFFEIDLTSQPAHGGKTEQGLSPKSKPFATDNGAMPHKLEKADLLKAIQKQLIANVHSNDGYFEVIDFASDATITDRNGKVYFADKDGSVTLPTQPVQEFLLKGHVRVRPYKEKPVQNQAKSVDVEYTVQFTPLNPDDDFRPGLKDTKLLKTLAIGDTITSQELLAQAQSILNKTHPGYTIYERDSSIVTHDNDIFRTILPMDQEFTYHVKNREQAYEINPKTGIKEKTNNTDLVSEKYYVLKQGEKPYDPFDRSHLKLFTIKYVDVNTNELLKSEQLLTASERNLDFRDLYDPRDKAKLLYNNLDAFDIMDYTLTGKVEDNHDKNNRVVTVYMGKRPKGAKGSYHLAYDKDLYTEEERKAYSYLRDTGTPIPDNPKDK

[2] = inhibitors of intracellular T. cruzi replication, confirmation, NIH3T3 host cells, beta-gal luminescence (AID 2044); assay type: functional, cell-based;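 further: intracellular parasites grown in NIH/3T3 mouse fibroblasts as host cells; luminescent beta-galactosidase reporter signal from transgenic T. cruzi replicating inside host cells; inhibitors lower the luminescence signal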
[3] = cytotoxicity toward NIH3T3 fibroblasts, dose response, counter-screen, cell-based, ATP luminescence, mouse fibroblasts (AID 2010); assay type: functional;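 further: cells exposed to compound for about 90 hours before reading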
Streptococcus = assay: Group A Streptococcus viability loss, dose response, counter-screen for streptokinase expression inhibitor project, luminescence, BacTiterGlo (AID 1915); assay type: functional, organism-based;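 further: potency for reduction of bacterial viability or growth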
[4] = Luminescence Cell-Based Dose Retest to Confirm Inhibitors of Cancer Stem Cells. [Related pubchem assays (depositor defined):AID2717, AID2721]; assay type: functional; conditions: Homo sapiens
HEK293 = assay: inhibitors of LMP1-driven NF-kB reporter, dose response, cell-based, HEK293, luciferase, cherry-pick (AID 588343); assay type: functional; conditions: Homo sapiens
INS1 = assay: beta cell apoptosis inhibitors, cytokine rescue, dose response, luminescence, retest (AID 449756); assay type: functional, cell-based; conditions: Rattus norvegicus;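 further: cell death triggered by IL-1 beta plus TNF-alpha plus IFN-gamma mixture; protective hits raise ATP signal compared with cytokine alone wells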
Nonstructural protein 1 = Nonstructural protein 1 (Influenza A virus, UniProt Q194T2); assay type: functional, Influenza A virus (A/California/07/2009(H1N1))
Prothrombin = Prothrombin (Homo sapiens, UniProt P00734); assay: Thrombin 1536 HTS Dose Response Confirmation. [Related pubchem assays: 1046 (Thrombin 1536 HTS; hits were confirmed in this assay)]; assay type: functional
[5] = biological target: Voltage-dependent T-type calcium channel subunit alpha-1H (Homo sapiens, UniProt O95180); assay type: functional;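 further: channel activity triggered by adding a high calcium stimulation buffer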
[6] = HeLa cell cytotoxicity, dose response, cytotoxicity control for MgcRacGAP inhibitor project (AID 624300); assay type: functional
[7] = biological target: T3, Rac GTPase-activating protein 1 (Homo sapiens, UniProt Q9H0H5); assay: MgcRacGAP GTPase-activating activity inhibitors, confirmation, biochemical, ADP Hunter fluorescence, primary and confirmatory (AID 624330); assay type: functional
T3 sequence (Q9H0H5 whole entry): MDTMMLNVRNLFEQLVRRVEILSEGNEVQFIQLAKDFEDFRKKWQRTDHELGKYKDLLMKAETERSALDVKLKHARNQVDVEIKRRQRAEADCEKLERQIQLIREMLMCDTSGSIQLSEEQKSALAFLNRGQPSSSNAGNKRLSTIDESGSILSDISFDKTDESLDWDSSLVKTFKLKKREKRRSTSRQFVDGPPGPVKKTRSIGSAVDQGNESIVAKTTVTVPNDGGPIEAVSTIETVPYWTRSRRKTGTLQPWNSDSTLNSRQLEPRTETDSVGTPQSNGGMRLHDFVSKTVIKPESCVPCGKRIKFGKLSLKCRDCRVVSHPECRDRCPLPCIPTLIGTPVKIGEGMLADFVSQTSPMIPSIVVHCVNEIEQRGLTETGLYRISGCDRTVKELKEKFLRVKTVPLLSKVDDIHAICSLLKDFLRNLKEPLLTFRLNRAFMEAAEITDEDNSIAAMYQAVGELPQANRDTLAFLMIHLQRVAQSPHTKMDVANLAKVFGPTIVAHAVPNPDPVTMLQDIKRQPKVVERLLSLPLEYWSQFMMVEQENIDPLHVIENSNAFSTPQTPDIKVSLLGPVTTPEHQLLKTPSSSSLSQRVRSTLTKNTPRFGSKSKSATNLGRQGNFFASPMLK

[8] = biological target: T4, Replicative DNA helicase DnaB (Mycobacterium tuberculosis, UniProt P9WMR3); assay: DnaB intein splicing inhibitors, dose response, biochemical, cell-free fluorescence (AID 449749); assay type: functional
T4 sequence (P9WMR3 whole entry): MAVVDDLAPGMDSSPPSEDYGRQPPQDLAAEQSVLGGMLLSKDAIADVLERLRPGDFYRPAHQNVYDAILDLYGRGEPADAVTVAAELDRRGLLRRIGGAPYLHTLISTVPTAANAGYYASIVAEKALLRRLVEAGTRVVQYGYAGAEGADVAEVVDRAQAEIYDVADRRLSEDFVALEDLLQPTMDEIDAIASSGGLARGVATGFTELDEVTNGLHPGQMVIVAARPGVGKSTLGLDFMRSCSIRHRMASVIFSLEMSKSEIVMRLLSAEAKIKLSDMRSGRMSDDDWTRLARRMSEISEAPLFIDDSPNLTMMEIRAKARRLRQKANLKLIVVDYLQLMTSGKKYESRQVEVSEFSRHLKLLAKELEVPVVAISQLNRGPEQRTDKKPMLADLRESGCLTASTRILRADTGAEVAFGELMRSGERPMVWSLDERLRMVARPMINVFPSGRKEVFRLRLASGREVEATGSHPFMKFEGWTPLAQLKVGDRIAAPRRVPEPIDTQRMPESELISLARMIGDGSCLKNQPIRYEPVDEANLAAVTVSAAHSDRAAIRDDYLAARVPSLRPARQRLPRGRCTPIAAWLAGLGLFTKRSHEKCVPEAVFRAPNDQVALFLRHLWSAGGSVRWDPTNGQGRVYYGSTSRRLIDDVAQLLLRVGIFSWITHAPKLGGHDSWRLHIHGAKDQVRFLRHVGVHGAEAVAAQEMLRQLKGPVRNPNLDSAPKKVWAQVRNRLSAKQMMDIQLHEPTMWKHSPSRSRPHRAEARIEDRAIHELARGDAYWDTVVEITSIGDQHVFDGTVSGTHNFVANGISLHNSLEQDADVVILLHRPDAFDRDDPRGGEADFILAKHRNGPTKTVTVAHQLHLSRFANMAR

Protein RecA = biological target: T5, Protein RecA (Mycobacterium tuberculosis, UniProt P9WHJ3); assay: Fluorescence Cell-Free Homogeneous Dose Retest to Identify Inhibitors of RecA-Intein Splicing Activity. [Related pubchem assays (depositor defined):AID2097, AID2223, AID489010, AID492950]; assay type: functional
T5 sequence (P9WHJ3 whole entry): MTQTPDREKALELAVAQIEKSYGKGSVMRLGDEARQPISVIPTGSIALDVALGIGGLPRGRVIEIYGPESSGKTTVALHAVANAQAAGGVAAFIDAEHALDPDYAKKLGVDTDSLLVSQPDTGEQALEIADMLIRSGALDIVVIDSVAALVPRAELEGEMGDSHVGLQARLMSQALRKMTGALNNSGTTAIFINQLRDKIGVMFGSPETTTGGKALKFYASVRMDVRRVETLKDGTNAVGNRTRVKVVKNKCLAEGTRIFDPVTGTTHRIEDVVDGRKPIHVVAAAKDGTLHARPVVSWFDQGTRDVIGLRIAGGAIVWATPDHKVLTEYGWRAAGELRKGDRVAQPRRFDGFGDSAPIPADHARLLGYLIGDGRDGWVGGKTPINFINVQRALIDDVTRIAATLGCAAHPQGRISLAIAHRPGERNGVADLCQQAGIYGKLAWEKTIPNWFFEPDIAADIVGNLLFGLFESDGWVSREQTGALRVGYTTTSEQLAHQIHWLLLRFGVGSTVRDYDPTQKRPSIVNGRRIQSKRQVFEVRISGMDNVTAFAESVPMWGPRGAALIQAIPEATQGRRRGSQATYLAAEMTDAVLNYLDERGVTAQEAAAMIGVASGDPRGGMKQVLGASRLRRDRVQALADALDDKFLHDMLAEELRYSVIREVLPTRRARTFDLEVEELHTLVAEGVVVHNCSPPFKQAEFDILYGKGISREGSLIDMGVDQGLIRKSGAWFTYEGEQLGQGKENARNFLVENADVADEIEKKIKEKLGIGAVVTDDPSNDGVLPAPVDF

[9] = growth suppression of PTEN-null colon cells, dose response, cell-based, HCT116 PTEN knockout (AID 1047); assay type: functional;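 further: HCT116 colon tumor cells with PTEN knocked out; cells exposed to compound for 60 hours before readout; potency for loss of cell viability measured by luminescence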
[10] = growth suppression of beta-catenin-knockout colon cells, dose response, cell-based, HCT116, human colon tumor (AID 1045); assay type: functional;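 further: HCT116 colon tumor cells with beta catenin knocked out; cells exposed to compound for 60 hours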
[11] = NIH-3T3 fibroblast cytotoxicity, dose response, cytotoxicity control, cell-based, fluorescence, Alamar Blue, secondary assay (AID 2327); assay type: functional;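 further: NIH-3T3 mouse fibroblasts cultured with fluconazole at 8 µg/mL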
[12] = C. albicans growth with fluconazole, confirmation, fluorescence, retest (AID 2467); assay type: functional, cell-based

Sequence of Phospholipase A2 (P04054 whole entry): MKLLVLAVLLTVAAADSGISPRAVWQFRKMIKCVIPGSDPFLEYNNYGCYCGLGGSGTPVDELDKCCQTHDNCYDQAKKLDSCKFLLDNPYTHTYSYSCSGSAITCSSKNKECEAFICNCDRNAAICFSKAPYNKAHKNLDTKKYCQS
Sequence of Voltage-dependent T-type calcium channel subunit alpha-1H (O95180 whole entry): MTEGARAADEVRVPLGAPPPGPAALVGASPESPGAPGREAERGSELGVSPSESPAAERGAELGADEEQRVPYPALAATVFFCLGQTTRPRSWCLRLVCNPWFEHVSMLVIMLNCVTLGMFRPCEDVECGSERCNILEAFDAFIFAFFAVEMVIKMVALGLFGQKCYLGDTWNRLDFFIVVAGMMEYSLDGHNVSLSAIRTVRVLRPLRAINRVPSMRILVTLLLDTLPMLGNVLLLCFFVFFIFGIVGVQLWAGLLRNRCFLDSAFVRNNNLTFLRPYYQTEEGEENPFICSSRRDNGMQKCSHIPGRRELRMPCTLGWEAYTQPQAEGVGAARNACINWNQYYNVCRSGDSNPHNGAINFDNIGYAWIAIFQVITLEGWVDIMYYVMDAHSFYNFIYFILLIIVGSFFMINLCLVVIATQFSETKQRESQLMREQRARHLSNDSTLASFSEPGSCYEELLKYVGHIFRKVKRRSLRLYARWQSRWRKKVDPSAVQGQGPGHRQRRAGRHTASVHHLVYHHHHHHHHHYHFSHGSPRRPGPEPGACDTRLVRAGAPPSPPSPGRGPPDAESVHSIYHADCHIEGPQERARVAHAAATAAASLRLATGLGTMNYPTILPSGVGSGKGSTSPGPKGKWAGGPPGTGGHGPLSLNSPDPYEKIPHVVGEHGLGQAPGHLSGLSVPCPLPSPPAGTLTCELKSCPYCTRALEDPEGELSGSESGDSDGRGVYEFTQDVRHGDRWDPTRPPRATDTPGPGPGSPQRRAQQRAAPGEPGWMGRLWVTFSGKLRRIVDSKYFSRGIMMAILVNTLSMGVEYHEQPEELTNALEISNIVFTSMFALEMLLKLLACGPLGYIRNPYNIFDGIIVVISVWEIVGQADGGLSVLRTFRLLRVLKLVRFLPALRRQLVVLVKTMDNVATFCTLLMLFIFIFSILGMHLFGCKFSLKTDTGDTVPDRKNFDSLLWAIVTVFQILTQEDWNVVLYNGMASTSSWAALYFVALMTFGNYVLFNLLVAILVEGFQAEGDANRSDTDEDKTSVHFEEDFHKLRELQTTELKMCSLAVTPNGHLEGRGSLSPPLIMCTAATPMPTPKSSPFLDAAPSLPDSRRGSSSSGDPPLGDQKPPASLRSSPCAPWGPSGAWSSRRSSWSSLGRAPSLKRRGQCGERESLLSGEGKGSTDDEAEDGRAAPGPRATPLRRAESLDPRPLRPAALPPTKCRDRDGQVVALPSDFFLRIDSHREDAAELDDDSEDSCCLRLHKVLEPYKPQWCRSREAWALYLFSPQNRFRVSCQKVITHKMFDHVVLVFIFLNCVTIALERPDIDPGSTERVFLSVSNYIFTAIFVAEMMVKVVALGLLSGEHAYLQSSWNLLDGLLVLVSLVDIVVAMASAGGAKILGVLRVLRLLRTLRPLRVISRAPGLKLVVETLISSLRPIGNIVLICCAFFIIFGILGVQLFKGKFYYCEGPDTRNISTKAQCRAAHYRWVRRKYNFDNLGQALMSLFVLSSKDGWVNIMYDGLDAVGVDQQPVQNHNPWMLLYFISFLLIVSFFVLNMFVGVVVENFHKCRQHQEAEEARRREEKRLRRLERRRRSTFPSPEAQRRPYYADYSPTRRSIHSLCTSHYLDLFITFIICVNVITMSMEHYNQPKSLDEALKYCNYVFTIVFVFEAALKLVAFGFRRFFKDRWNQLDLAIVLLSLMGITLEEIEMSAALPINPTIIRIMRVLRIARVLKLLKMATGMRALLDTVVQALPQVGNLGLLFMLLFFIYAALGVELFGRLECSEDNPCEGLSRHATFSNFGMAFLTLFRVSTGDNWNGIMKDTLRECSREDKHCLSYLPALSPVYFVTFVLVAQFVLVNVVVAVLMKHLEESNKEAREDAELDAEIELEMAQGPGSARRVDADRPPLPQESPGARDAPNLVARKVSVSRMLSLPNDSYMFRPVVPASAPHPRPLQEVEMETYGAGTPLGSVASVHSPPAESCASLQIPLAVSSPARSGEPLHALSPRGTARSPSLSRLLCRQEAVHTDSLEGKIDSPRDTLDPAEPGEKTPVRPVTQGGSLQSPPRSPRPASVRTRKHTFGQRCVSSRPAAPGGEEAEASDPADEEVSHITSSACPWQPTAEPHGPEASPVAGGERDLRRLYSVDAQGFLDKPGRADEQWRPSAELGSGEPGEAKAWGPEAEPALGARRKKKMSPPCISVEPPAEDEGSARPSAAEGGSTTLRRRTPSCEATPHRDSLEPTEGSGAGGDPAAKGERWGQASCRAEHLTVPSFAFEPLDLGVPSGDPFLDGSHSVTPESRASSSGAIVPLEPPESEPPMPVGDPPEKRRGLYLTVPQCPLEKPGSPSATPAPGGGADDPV
Sequence of Nonstructural protein 1 (Q194T2 whole entry): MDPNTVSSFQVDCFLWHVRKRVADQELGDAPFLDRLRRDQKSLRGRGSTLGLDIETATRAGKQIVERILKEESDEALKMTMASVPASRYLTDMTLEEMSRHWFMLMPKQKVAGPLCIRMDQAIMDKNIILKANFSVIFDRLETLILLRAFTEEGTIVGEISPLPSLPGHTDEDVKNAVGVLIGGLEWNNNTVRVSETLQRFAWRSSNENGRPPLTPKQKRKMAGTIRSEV

## NC(=O)CSc1nc2cc([N+](=O)[O-])ccc2[nH]1
Cysteine protease ATG4B
  IC50: 12.4 µM (active)
Phospholipase A2
  IC50: 9.62 µM (active)

## Cc1ccc(C(=O)O)cc1/N=C/c1cc(Br)cc(Br)c1O
Cysteine protease ATG4B
  IC50: 9.89 µM (active)
Phospholipase A2
  IC50: 18 µM (active)

## S=C(NCC1CCCCC1)Nc1ccc(Oc2ccccc2)cc1
[1]
  EC50: 10.9 µM (active)
Streptokinase A
  EC50: 4.05 µM (active)
[2]
  EC50: 2.05 µM (active)
[3]
  EC50: > 60 µM (not active)
Streptococcus
  EC50: 24.3 µM (active)
[4]
  AC50: 4.58 µM (active)
HEK293
  AC50: 170 µM (active)

## CCC1=NN(C(=O)c2cccc(Br)c2)C(O)(c2ccc(Br)cc2)C1 (stereo not given)
[4]
  AC50: 0.634 µM (active)
Cysteine protease ATG4B
  IC50: 12.1 µM (active)
Phospholipase A2
  IC50: 8.71 µM (active)
INS1
  AC50: 4.84 µM (active)

## Clc1ccc(-c2cnnc(-c3ccccn3)n2)cc1
Nonstructural protein 1
  IC50: 14.2 µM (active)

## O=C1C=C(O)c2c(O)cccc2C1=O
Prothrombin
  IC50: > 50 µM (not active)

## COc1ccc(C(C(O)C(=O)c2c[nH]c3ccccc23)N2CCN(c3ccccc3)CC2)cc1 (stereo not given)
[5]
  EC50: 8.16 µM (active)

## O=C(Nc1nc2ccccc2s1)C1CCCN1S(=O)(=O)c1ccc(Cl)cc1 (stereo not given)
[5]
  EC50: 5.86 µM (active)

## CC(=O)c1ccc(O)c(CSC2=NCCS2)c1
Prothrombin
  IC50: > 50 µM (not active)

## Cc1ccc(-c2nnn(CC(=O)N(c3ccccc3F)C(CC(C)C)C(=O)NCC3CCCO3)n2)cc1 (stereo not given)
[5]
  EC50: 5.3 µM (active)

## CCOc1cc(CNc2ccc(N3CCCCC3)cc2)cc(Br)c1OCC(=O)NC(C)(C)C
[2]
  EC50: 1.46 µM (active)
[3]
  EC50: > 60 µM (inconclusive)
[6]
  CC50: 100 µM (active)
[7]
  IC50: 20.8 µM (active)

## CCCC(=O)n1nc(-c2ccc(Cl)cc2)nc1SC
Prothrombin
  IC50: 3.57 µM (active)

## COc1cccc(C(=O)Nc2n[nH]c(SCc3ccc(Cl)cc3)n2)c1
Prothrombin
  IC50: 2.94 µM (active)
[8]
  AC50: 2.78 µM (active)
Protein RecA
  EC50: 1.29 µM (active)

## COc1ccc(CNc2nc(-c3cccnc3)nn2C(C)=O)cc1
Prothrombin
  IC50: 0.0252 µM (active)

## O=C(Nc1nc(-c2cccs2)cs1)c1ccco1
Prothrombin
  IC50: > 50 µM (not active)

## CN(C)Cc1ccc(F)cc1Sc1cc(Cl)ccc1Cl
Cysteine protease ATG4B
  IC50: 16.9 µM (active)
Phospholipase A2
  IC50: 16.4 µM (active)

## COc1ccc(/C=C2\SC(=O)N(CCCC(=O)Nc3ccc(C(=O)O)cc3)C2=O)cc1
HEK293
  AC50: 2.37 µM (active)

## Cc1nc(SCC(=O)c2cc3ccccc3oc2=O)c(C#N)c(-c2ccccc2)c1C(=O)Nc1ccccc1
[9]
  EC50: 8.4 µM (active)
[10]
  EC50: 7.01 µM (active)

## O=[N+]([O-])c1nn(-c2ccc3c(c2)OCCO3)[n+]([O-])c1NC1CCCCCC1
[2]
  EC50: 0.681 µM (active)
[3]
  EC50: > 30 µM (not active)
Nonstructural protein 1
  IC50: 44.6 µM (active)

## O=C(Nc1cc(C(F)(F)F)cc(C(F)(F)F)c1)c1ccc(Cn2cc(C(F)(F)F)ccc2=O)cc1
[5]
  EC50: 5.74 µM (active)

## O=C(CCC1COc2ccccc2O1)Nc1ccc(Cl)cn1 (stereo not given)
[5]
  EC50: 2.94 µM (active)

## CCCc1c(C(=O)N/N=C(\C)c2ccccn2)nnn1-c1nonc1N
HEK293
  AC50: 9.69 µM (active)

## C=CCn1c(O)c(N=NC(S)=Nc2ccccc2C)c2cc(S(=O)(=O)N3CCOCC3)ccc21
[11]
  EC50: 20.4 µM (inconclusive)
[12]
  EC50: 2.06 µM (active)
HEK293
  AC50: 2.93 µM (active)
